This is an account of results in patent publication US20250051275A1, “PYRROLE DERIVATIVE OR PHARMACEUTICALLY OR SITOLOGICALLY ACCEPTABLE SALTS THEREOF, AND COMPOSITION FOR PREVENTION, AMELIORATION OR TREATMENT OF GASTROINTESTINAL DISORDERS COMPRISING SAME AS ACTIVE INGREDIENT” (HANA PHARM CO., LTD., priority 2021, published 2025).

Molecules are shown by their SMILES. Where two headings read alike, the source gives them in different places.

Assay [1] deals with human gastric cancer cells (AGS Cells). Kind of assay: MTS assay, inhibition of proliferation of human gastric cancer cells (AGS Cells). It is filed as cell-based. The following applies: 48 hours. As for the experimental part: To examine the effect of inhibiting the proliferation of the compounds indicated in the examples of the present invention on human gastric cancer cells (AGS Cells), MTS Assay experiments were in vitro performed. AGS cells were cultured in a 5% CO2 incubator at 37° C. by using RPMI 1640 medium containing 1% penicillin-streptomycin and 10% fetal bovine serum. The cells in culture were separated with using 0.25% Trypsin-0.02% EDTA every 3 to 4 days and subcultured.
For the experiment, the cultured cells were treated with 0.25% Trypsin-0.02% EDTA solution, the suspended cells were centrifuged at 1,200 rpm for 5 minutes, the supernatant was discarded, a culture medium was added thereto, and a cell suspension was made with the culture medium. Using a hemocytometer, 10,000 cells per well were dispensed into 96-well plates and cultured. After 24 hours, when the cells attached to the plate, the culture medium was discarded, and the cells were treated with new culture media prepared by concentration (test concentrations: 500 μm, 250 μm, 125 μm, 63 μm, 31 μm, 16 μm, 8 μm, 4 μm, and 2 μm) and cultured in a CO2 incubator for 48 hours. After treating with an MTS solution, the cells were incubated in a CO2 incubator for 1 hour, and the absorbance was measured at 490 nm by using a microplate reader device. The cell proliferation inhibition rate was expressed as IC50, which is 50% inhibition of cell proliferation, using GraphPad Prism 5.
In Table 2 below, the IC50 value is indicated as “+++” for 0 to 50 μM, “++” for 51 to 100 μM, and “+” for 101 to 400 μM.
(In general: Formazan colour is commonly taken as a measure of viable cells.)

For assay [2], the target named is proton pump (H+/K+-ATPase) (Sus scrofa (Pig), UniProt P19156). Description: Inhibitory activity on proton pump (H+/K+-ATPase) activity. It is filed as biochemical. The following applies: porcine gastric mucosal microsomes, 5 mM KCl, pH 6.4. The procedure:
The compounds indicated in the above examples were tested for their inhibitory activity on proton pump (H+/K+-ATPase) activity as follows by applying the method disclosed in the literature. According to the methods of Nobuyuki Takahashi and Yukinori Take [J Pharmacol Exp Ther. 2018 February; 364(2):275-286], the gastric mucosal microsome fraction was isolated from the porcine stomach. The stomach isolated from the pig was washed first with tap water, only the fundus was cut, and then washed (a second time) with cold PBS. The gastric mucosa was separated by scraping, homogenized with 250 mM sucrose solution, and centrifuged at 20,000 g at 4° C. for 30 minutes. Only the supernatant was centrifuged at 115,000 g at 4° C. for 30 minutes, and the precipitate was suspended in 250 mM sucrose solution, added to cover with 7% Ficoll solution, and centrifuged at 135,000 g at 4° C. for 60 minutes. The microsome fraction formed at the interface was recovered and suspended in 250 mM sucrose solution, and centrifuged at 135,000 g, 4° C. for 60 minutes, and the precipitate was dissolved in 0.9% NaCl. The isolated gastric mucosal microsome fraction was quantified by using the Bicinchoninic Acid (BCA) kit (Thermo).
60 μl of enzyme reaction solution (a test compound at a given concentration, […] of gastric mucosal microsomes, 3 mM of MgSO4, 5 mM of KCl, 40 mM of Tris-HCl pH 6.4, and 0.5 mM of adenosine triphosphate) was added to each well of a 96-well plate and reacted at 37° C. for 60 minutes, and 30 μl of 10% SIDS was added to stop the enzyme reaction. 200 μl of detection solution (in which 10% L-ascorbic acid with pH 5.0 was mixed with 35 mM of ammonium molybdate tetrahydrate/15 mM of zinc acetate with pH 5.0 at the ratio of 4:1) was added and reacted at 37° C. for 30 minutes, and the absorbance value was measured at 750 nm by using a microplate reader (MULTISKAN GO, Thermo). The inhibition rate of proton pump activity was expressed as I050, which is 50% inhibition of enzyme activity, by using GraphPad Prism 5. In Table 1 below, an I050 value of 100 nM or less is indicated by +++, an I050 value of 101 to 200 nM is indicated by ++, and an I050 value of above 200 nM is indicated by +.

Where [3] appears, read: Homo sapiens, read-out: Proliferation inhibitory effect of gastric cancer cells (IC50).
[4] abbreviates: Homo sapiens, read-out: Proliferation inhibitory effect of gastric cancer cells (IC50, μM), class symbol.
Where [5] appears, read: read-out: Proton pump inhibitory activity (IC50).
The mark [6] stands for this setting: read-out: Proton pump inhibitory activity (IC50, nM), class symbol.

Chain of proton pump (H+/K+-ATPase) (P19156 2-1034): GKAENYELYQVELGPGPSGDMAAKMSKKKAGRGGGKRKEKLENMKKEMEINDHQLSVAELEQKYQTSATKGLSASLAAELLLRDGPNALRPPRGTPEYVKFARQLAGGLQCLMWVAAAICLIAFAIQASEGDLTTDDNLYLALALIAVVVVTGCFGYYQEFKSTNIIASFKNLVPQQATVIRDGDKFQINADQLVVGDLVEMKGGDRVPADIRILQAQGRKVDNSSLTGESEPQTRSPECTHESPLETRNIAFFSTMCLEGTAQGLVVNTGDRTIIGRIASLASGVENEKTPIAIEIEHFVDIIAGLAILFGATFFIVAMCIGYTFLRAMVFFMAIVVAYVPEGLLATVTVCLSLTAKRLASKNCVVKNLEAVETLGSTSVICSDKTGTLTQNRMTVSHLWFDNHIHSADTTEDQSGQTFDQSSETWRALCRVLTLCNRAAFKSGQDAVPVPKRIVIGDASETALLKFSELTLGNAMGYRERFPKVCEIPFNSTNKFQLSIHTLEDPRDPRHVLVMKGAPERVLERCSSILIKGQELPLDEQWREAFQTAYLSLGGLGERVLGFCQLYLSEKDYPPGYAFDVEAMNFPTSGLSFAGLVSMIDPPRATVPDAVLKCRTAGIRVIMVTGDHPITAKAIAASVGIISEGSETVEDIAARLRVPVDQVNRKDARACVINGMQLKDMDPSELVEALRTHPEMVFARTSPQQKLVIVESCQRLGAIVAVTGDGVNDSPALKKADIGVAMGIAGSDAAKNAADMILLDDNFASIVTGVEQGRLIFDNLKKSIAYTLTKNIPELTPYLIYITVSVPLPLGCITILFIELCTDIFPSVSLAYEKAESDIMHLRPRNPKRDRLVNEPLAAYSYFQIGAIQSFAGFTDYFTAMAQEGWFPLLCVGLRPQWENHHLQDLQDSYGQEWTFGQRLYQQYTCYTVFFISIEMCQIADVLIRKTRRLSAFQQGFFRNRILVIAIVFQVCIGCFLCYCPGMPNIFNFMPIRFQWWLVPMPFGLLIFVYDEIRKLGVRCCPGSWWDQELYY
Chain of proton pump (H+/K+-ATPase) (P18434 whole entry partner): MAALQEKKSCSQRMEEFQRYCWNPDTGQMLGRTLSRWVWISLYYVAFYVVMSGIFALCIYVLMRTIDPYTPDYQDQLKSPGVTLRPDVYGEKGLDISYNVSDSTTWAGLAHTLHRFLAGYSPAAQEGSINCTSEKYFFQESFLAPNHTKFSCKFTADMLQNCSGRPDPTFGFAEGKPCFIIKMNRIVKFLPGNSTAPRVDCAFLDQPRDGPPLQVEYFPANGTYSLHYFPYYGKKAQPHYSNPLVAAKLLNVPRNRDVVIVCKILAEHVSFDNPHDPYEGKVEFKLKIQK

Regarding `COc1ccc2nc([S@@+]([O-])Cc3ncc(C)c(OC)c3C)[nH]c2c1` [Control Drug 2 (Esomeprazole), 6-methoxy-2-[(S)-(4-methoxy-3,5-dimethylpyridin-2-yl)methylsulfinyl]-1H-benzimidazole, reference compound], the IC50 in assay [1] (setting [3]) was 194 µM; in assay [1] (setting [4]), 101 to 400 µM.
As for `N.N.[Cl][Pt][Cl]` [Control Drug 3 (Cisplatin), diamminedichloridoplatinum(II), reference compound], the IC50 in assay [1] (read-out: Proliferation inhibitory effect of gastric cancer cells (IC50)) was 19.2 µM; in assay [1] (read-out: Proliferation inhibitory effect of gastric cancer cells (IC50, μM), class symbol) it was under 50 µM.
On to `[2H]C([2H])([2H])NCc1cc(-c2ccccc2F)n(S(=O)(=O)c2ccc(C)cc2)c1` [Example 2, N-((5-(2-fluorophenyl)-1-tosyl-1H-pyrrol-3-yl)methyl)methan-d3-amine], for which the IC50 in assay [2] (setting [5]) was 68 nM; in assay [2] (setting [6]), at most 100 nM; in assay [1] (setting [3]), 17.5 µM; in assay [1] (setting [4]) it was under 50 µM.
The matching figures for `[2H]C([2H])([2H])NCc1cc(-c2ccccc2F)n(S(=O)(=O)c2ccc(OC)cc2)c1` [Example 3, N-((5-(2-fluorophenyl)-1-((4-methoxyphenyl)sulfonyl)-1H-pyrrol-3-yl)methyl)methan-d3-amine]: 48 nM, at most 100 nM, 3.5 µM and under 50 µM.
For `[2H]C([2H])([2H])NCc1cc(-c2ccccc2F)n(S(=O)(=O)c2ccc(C#N)cc2)c1` [Example 4, 4-((2-(2-fluorophenyl)-4-(((methyl-d3)amino)methyl)-1H-pyrrol-1-yl)sulfonyl)benzonitrile], the IC50 is 90 nM in assay [2] (setting [5]), at most 100 nM in assay [2] (setting [6]), 32.7 µM in assay [1] (setting [3]) and under 50 µM in assay [1] (setting [4]).
Consider `[2H]C([2H])([2H])NCc1cc(-c2ccccc2F)n(S(=O)(=O)c2ccc(Br)cc2)c1` [Example 5, N-((1-((4-bromophenyl)sulfonyl)-5-(2-fluorophenyl)-1H-pyrrol-3-yl)methyl)methan-d3-amine], for which the IC50 in assay [2] (setting [5]) was 36 nM; in assay [2] (setting [6]), at most 100 nM.
Take `[2H]C([2H])([2H])NCc1cc(-c2ccccc2F)n(S(=O)(=O)c2ccc(Cl)cc2)c1` [Example 6, N-((1-((4-chlorophenyl)sulfonyl)-5-(2-fluorophenyl)-1H-pyrrol-3-yl)methyl)methan-d3-amine]: the IC50 is 26 nM in assay [2] (setting [5]), at most 100 nM in assay [2] (setting [6]), 21.7 µM in assay [1] (setting [3]) and under 50 µM in assay [1] (setting [4]).
Take `[2H]C([2H])([2H])NCc1cc(-c2ccccc2F)n(S(=O)(=O)c2ccc(OC(F)(F)F)cc2)c1` [Example 8, N-((5-(2-fluorophenyl)-1-((4-(trifluoromethoxy)phenyl)sulfonyl)-1H-pyrrol-3-yl)methyl)methan-d3-amine]: the IC50 in assay [2] (setting [5]) is 51 nM; in assay [2] (setting [6]), at most 100 nM; in assay [1] (setting [3]) it was 12.2 µM; in assay [1] (setting [4]), under 50 µM.
Turning to `[2H]C([2H])([2H])NCc1cc(-c2cccc(F)c2)n(S(=O)(=O)c2ccc(Cl)cc2)c1` [Example 10, N-((1-((4-chlorophenyl)sulfonyl)-5-(3-fluorophenyl)-1H-pyrrol-3-yl)methyl)methan-d3-amine], the IC50 in assay [2] (setting [5]) is 60 nM; in assay [2] (setting [6]) it was at most 100 nM.
`[2H]C([2H])([2H])NCc1cc(-c2cccc(F)c2)n(S(=O)(=O)c2ccc(OC)cc2)c1` [Example 11, N-((5-(3-fluorophenyl)-1-((4-methoxyphenyl)sulfonyl)-1H-pyrrol-3-yl)methyl)methan-d3-amine]: the results for the IC50 in assay [2] (setting [5]) and in assay [2] (setting [6]) were 76 nM and at most 100 nM, respectively.
Consider `[2H]C([2H])([2H])NCc1cc(-c2ccc(F)cc2F)n(S(=O)(=O)c2ccc(Br)cc2)c1` [Example 13, N-((1-((4-bromophenyl)sulfonyl)-5-(2,4-difluorophenyl)-1H-pyrrol-3-yl)methyl)methan-d3-amine], for which the IC50 in assay [1] (setting [3]) was 14.2 µM; in assay [1] (setting [4]), under 50 µM.
On to `[2H]C([2H])([2H])NCc1cc(-c2ccc(F)cc2F)n(S(=O)(=O)c2ccc(C)cc2)c1` [Example 16, N-((5-(2,4-difluorophenyl)-1-tosyl-1H-pyrrol-3-yl)methyl)methane-d3-amine], for which the IC50 in assay [2] (setting [5]) was 82 nM; in assay [2] (setting [6]), at most 100 nM.
The matching figures for `[2H]C([2H])([2H])NCc1cc(-c2ccc(F)cc2F)n(S(=O)(=O)c2ccc(OC)cc2)c1` [Example 17, N-((5-(2,4-difluorophenyl)-1-((4-methoxyphenyl)sulfonyl)-1H-pyrrol-3-yl)methyl)methan-d3-amine]: 84 nM and at most 100 nM.
With `[2H]C([2H])([2H])NCc1cc(-c2cccc(F)c2)n(S(=O)(=O)c2ccc(C#N)cc2)c1` [Example 22, 4-((2-(3-fluorophenyl)-4-(((methyl-d3)amino)methyl)-1H-pyrrol-1-yl)sulfonyl)benzonitrile], the IC50 is 22.6 µM in assay [1] (setting [3]) and under 50 µM in assay [1] (setting [4]).
As to `[2H]C([2H])([2H])NCc1cc(-c2ccc(F)cc2)n(S(=O)(=O)c2ccc(F)cc2)c1` [Example 24, N-((5-(4-fluorophenyl)-1-((4-fluorophenyl)sulfonyl)-1H-pyrrol-3-yl)methyl)methan-d3-amine], the IC50 in assay [1] (setting [3]) was 41.5 µM; in assay [1] (setting [4]), under 50 µM.
Regarding `[2H]C([2H])([2H])NCc1cc(-c2ccc(F)cc2)n(S(=O)(=O)c2ccc(Br)cc2)c1` [Example 25, N-((1-((4-bromophenyl)sulfonyl)-5-(4-fluorophenyl)-1H-pyrrol-3-yl)methyl)methan-d3-amine], the IC50 was 24.8 µM in assay [1] (setting [3]) and under 50 µM in assay [1] (setting [4]).
With `[2H]C([2H])([2H])NCc1cc(-c2ccc(F)cc2)n(S(=O)(=O)c2ccc(Cl)cc2)c1` [Example 26, N-((1-((4-chlorophenyl)sulfonyl)-5-(4-fluorophenyl)-1H-pyrrol-3-yl)methyl)methan-d3-amine], the figures for the IC50 in assay [1] (setting [3]) and in assay [1] (setting [4]) were 13.2 µM and under 50 µM, respectively.
Turning to `[2H]C([2H])([2H])NCc1cn(S(=O)(=O)c2ccc(OC)nc2)c(-c2ccc(F)cc2F)c1OC` [Example 37, N-((5-(2,4-difluorophenyl)-4-methoxy-1-((6-methoxypyridin-3-yl)sulfonyl)-1H-pyrrol-3-yl)methyl) methane-d3-amine], the IC50 in assay [2] (setting [5]) is 88 nM; in assay [2] (setting [6]) it was at most 100 nM.
As to `[2H]C([2H])([2H])NCc1cn(S(=O)(=O)c2cccnc2)c(-c2c(F)cc(F)cc2F)c1OC` [Example 39, N-((4-methoxy-1-(pyridin-3-ylsulfonyl)-5-(2,4,6-trifluorophenyl)-1H-pyrrol-3-yl)methyl)methan-d3-amine], the IC50 is 38 nM in assay [2] (setting [5]) and at most 100 nM in assay [2] (setting [6]).
On to `[2H]C([2H])([2H])NCc1cn(S(=O)(=O)c2ccc(OC)nc2)c(-c2c(F)cc(F)cc2F)c1OC` [Example 40, N-((4-methoxy-1-((6-methoxypyridin-3-yl)sulfonyl)-5-(2,4,6-trifluorophenyl)-1H-pyrrol-3-yl)methyl)methane-d3-amine], for which the values for the IC50 in assay [2] (setting [5]) and in assay [2] (setting [6]) were 64 nM and at most 100 nM, respectively.
